# According to patent publication US20100286260A1, “MILNACIPRAN FORMULATIONS” (priority 2009, published 2010):
# Legend:
# [1] = Conversion to cyclic degradation product F1612 in 0.1 M pH 9.0 buffer at 50° C.; type: physicochemical; conditions: 50° C. and pH 9.0
# Experimental: Milnacipran hydrochloride was exposed to 0.1 M pH 9.0 buffer (glycine-NaOH) at 50° C. in a closed glass flask for several days.
# [2] = type: physicochemical
# Description: (§1) Milnacipran can be easily processed in solvent state with conventional binder such as Povidone. However, in aqueous state the milnacipran has some unusual properties which present difficulties in drug layering approach. […] In exemplary embodiments, the PEG functions as a co-binder, anti-tacking agent, plasticizer to HPMC and as an eraser to the drug's deliquescent property.
# Deliquescence = type: physicochemical; conditions: room temperature
# Description: as §1
# uptake of dopamine = conditions: cited from earlier work
structure (smiles),measurement,setting,value
"CCN(CC)C(=O)C1(c2ccccc2)CC1CN (stereo not shown) [Milnacipran, milnacipran]",formation of the cyclic degradation product,[1],rapid formation
same,solubility in water,[2],highly soluble
same,deliquescent at RH,Deliquescence,75-80 % RH
same,effect on the uptake of dopamine,uptake of dopamine,does not affect
